Measurements from PMC6316070 (Marine Drugs, 2018).

Legend:
Settings in all cases: human
in vitro [1] = assay: in vitro
Method: (§1) The in vitro cytotoxic effects of the novel compounds 1, 8, and 9 were evaluated on five human cancer cell lines using the MTT (3-(4,5-dimethylthiazol-2-yl)-2,5-diphenyltetrazolium bromide) method [32, 33, 34]. […] All cells were cultured in RPMI-1640 medium containing 10% fetal bovine serum (FBS), and kept in a humidified atmosphere containing 5% CO2 at 37 °C. […] In brief, the cell suspensions (200 μL, 5 × 10^4 cells/mL) were seeded into 96-well culture plates and kept at 37 °C for 12 h, then the sample solvents (20 μL) were added into each well and further cultured at 37 °C for 24 h. Subsequently, MTT (100 μg) was added into each well and incubated at 37 °C for 4 h. After removal of the 100 μL culture medium, the cells were lysed with 20% SDS-50% DMF (100 μL). The remaining lysates were subjected to measurements of the optical density at 595 nm with a 96-well microtiter plate reader. Reed and Muench’s method was used to calculate IC50 values [32].

in vitro [2] = assay: in vitro; remark: listed apart in the source
Method: as §1

in vitro [3] = assay: in vitro; remark: listed apart in the source
Method: as §1

in vitro [4] = assay: in vitro; remark: listed apart in the source
Method: as §1

in vitro [5] = assay: in vitro; remark: listed apart in the source
Method: as §1

Measured: IC50

CC(=O)OCC(C)=CCCC(C)(O)C1CCC(C)(O)C1C (stereo not shown) [Compound 8, Cyclonerodiol C]
> 40 µM: all assays above

CC1C(C(C)(O)CC=CC(C)(C)O)CCC1(C)O (stereo not shown) [Compound 9, Cyclonerodiol D]
> 40 µM: all assays above
